Patent US20180072738A1, “SOLVATED FORMS OF A BRUTON'S TYROSINE KINASE INHIBITOR” (Pharmacyclics LLC, priority 2015, published 2018)
Like-named read-outs stand apart in the source and are kept apart here. Blank lines part the entries; values can stand above or below the compound they belong to.

Columns and labels:
[1] = Storage stability of the crystalline form at 40° C./75% RH (XRPD); assay type: physicochemical; settings: for crystalline form after storage: storage at 40° C. and 75% RH, duration not stated
Protocol: X-Ray powder diffraction patterns were collected on a Bruker AXS C2 GADDS or Bruker AXS D8 diffractometer.
X-Ray Powder Diffraction patterns were collected on a Bruker AXS C2 GADDS diffractometer using Cu Ka radiation (40 kV, 40 mA), automated XYZ stage, laser video microscope for auto-sample positioning and a Hi Star 2-dimensional area detector. X-ray optics consists of a single Gobel multilayer mirror coupled with a pinhole collimator of 0.3 mm. A weekly performance check is carried out using a certified standard NIST 1976 Corundum (flat plate). The beam divergence, i.e. the effective size of the X-ray beam on the sample, was approximately 4 mm. A θ-θ continuous scan mode was employed with a sample-detector distance of 20 cm which gives an effective 2θ range of 3.2°-29.7°. Typically the sample would be exposed to the X-ray beam for 120 seconds. The software used for data collection was GADDS for XP/2000 4.1.43 and the data were analysed and presented using Diffrac Plus EVA v15.0.0.0.
X-Ray Powder Diffraction patterns were collected on a Bruker D8 diffractometer using Cu Ka radiation (40 kV, 40 mA), θ-2θ goniometer, and divergence of V4 and receiving slits, a Ge monochromator and a Lynxeye detector. The instrument is performance checked using a certified Corundum standard (NIST 1976). The software used for data collection was Diffrac Plus XRD Commander v2.6.1 and the data were analysed and presented using Diffrac Plus EVA v15.0.0.0. Samples were run under ambient conditions as flat plate specimens using powder as received. The sample was gently packed into a cavity cut into polished, zero-background (510) silicon wafer. The sample was rotated in its own plane during analysis. The details of the data collection are: • Angular range: 2 to 42° 2θ • Step size: 0.05° 2θ • Collection time: 0.5 s/step

[2] = tested on: OCI-Ly10; test: Growth inhibition of OCI-Ly10 (ABC-DLBCL) cells; assay type: cell-based; settings: Homo sapiens
[3] = tested on: OCILy10; test: Induction of apoptosis in OCI-Ly10 (caspase activation, Annexin-V flow cytometry, sub-G0 fraction); assay type: cell-based; settings: increase in sub-G0 fraction

crystalline form after storage ([1]; listed as 1,1,2-trichloroethane solvate of Compound 1): changes to a Form A
Structure (SMILES): C=CC(=O)N1CCC[C@@H](n2nc(-c3ccc(Oc4ccccc4)cc3)c3c(N)ncnc32)C1 [listing 1 of 3 here]

Crystallinity after storage ([1]; one week storage at 40° C./75% RH, XRPD): unaffected
Structure (SMILES): C=CC(=O)N1CCC[C@@H](n2nc(-c3ccc(Oc4ccccc4)cc3)c3c(N)ncnc32)C1 [listing 2 of 3 here]

crystalline form after storage ([1]; listed as benzyl acetate solvate of Compound 1): does not change
Structure (SMILES): C=CC(=O)N1CCC[C@@H](n2nc(-c3ccc(Oc4ccccc4)cc3)c3c(N)ncnc32)C1 [listing 3 of 3 here]

EC50 ([2]; OCI-Ly10, 1 hour pulse, read-out: EC50 1 hour pulse (growth of OCI-Ly10)): 50 nM
EC50 ([2]; OCI-Ly10, continuous exposure, read-out: EC50 continuous exposure (growth of OCI-Ly10)): 10 nM
Structure (SMILES): C=CC(=O)N1CCC[C@@H](n2nc(-c3ccc(Oc4ccccc4)cc3)c3c(N)ncnc32)C1 [Compound 1, 1-((R)-3-(4-amino-3-(4-phenoxyphenyl)-1H-pyrazolo[3,4-d]pyrimidin-1-yl)piperidin-1-yl)prop-2-en-1-one]
induction of apoptosis [3]: observed
